Results on 2 compounds are retold here after patent US20080051378A1, “Combinations Comprising Antimuscarinic Agents and Corticosteroids” (priority 2004, published 2008).

By inhibition is commonly meant how much of the control response was suppressed.

The test system of the assay is ovoalbumin-sensitized guinea-pig isolated tracheal rings. The experiment in a line: Inhibition of the antigen (ovoalbumin)-induced contraction in ovoalbumin-sensitized guinea-pig isolated tracheal rings. The following applies: for CONTRACTILE RESPONSE TO OVOALBUMIN (in mg) (mean ± sem): vehicle 886 ± 108 mg. The protocol:
Male Dunkin-Hartley guinea-pigs (weighing 380-420 g) from Harlan Ibérica (St. Feliu de Codines, Spain) are used. They are housed, with free access to food and water, in rooms kept at 22±2° C. under a 12 hours light-dark cycle until the start of the experiment.
The animals are sensitised by means of two sessions of aerosolization with a solution of 5 mg/ml of ovoalbumin on days zero and 7 of the study. The aerosolization procedure consists of two 30-s nebulisations (Efbe air brush apparatus) with an interval of 5 minutes with animals maintained in a plexiglass box for 10 minutes since the beginning of the procedure.
Between days 14 to 20 from the beginning of the experiment the animals are euthanised and the tracheal tissue is removed. A single tracheal ring is excised and suspended in an organ bath containing Krebs solution. Once attached to a force isometric transducer, it is submitted to a basal resting tension of 1 g, equilibrated with a mixture a 5% CO2 in O2 and maintained at 37° C.
The preparations are allowed to equilibrate for a period of not less than 60 minutes and then the vehicle or the compound(s) to be tested are added to the bath. The corticosteroids (if present) are added first, and, after an incubation period of 45 minutes, the M3 antagonist are subsequently added allowing the system to stand for another 15 minutes. At this moment ovoalbumin is added (at a final concentration in the bath of 10 μg/ml) to elicit the contractile response which is measured immediately.
The contractile responses measured with a force isometric transducer are expressed in mg.

The mark [1] stands for this setting: each compound 10 μM in organ bath, corticosteroid added 45 min before, M3 antagonist 15 min before ovoalbumin 10 μg/ml.

On to `C[C@H]1C[C@H]2[C@@H]3CCC4=CC(=O)C=C[C@]4(C)[C@@]3(Cl)[C@@H](O)C[C@]2(C)[C@@]1(O)C(=O)CO` [BECLOMETHASONE, beclomethasone], for which, under setting [1], the “CONTRACTILE RESPONSE TO OVOALBUMIN (in mg) (mean ± sem)” value amounted to 778 ± 83 mg. Moreover, where the note is “each compound 10 μM in organ bath, corticosteroid added 45 min before, M3 antagonist 15 min before ovoalbumin 10 μg/ml, versus vehicle”, the “% INHIBITION OF THE CONTRACTILE RESPONSE” value was 12%. In addition, the “inhibition of the contractile response, comparison in words” value (text summary of Table 1 and FIG. 1, 10 μM each) is on record as “smaller effect”.

Consider `CCCC1O[C@@H]2C[C@H]3[C@@H]4CCC5=CC(=O)C=C[C@]5(C)[C@H]4[C@@H](O)C[C@]3(C)[C@]2(C(=O)CO)O1` (some centres unmarked) [BUDESONIDE, budesonide], for which, under “Cavia porcellus, each compound 10 μM in organ bath, corticosteroid added 45 min before, M3 antagonist 15 min before ovoalbumin 10 μg/ml, versus vehicle, read-out: % INHIBITION OF THE CONTRACTILE RESPONSE”, the inhibition at 10 µM amounted to 51%. Also, the “CONTRACTILE RESPONSE TO OVOALBUMIN (in mg) (mean ± sem)” value under setting [1] was 435 ± 68 mg.
